In patent publication US20110060026A1, “Indoles Active on CRTH2 Receptor” (priority 2008, published 2011):

Biological target: T1, CRTH2 receptor (Homo sapiens, UniProt Q9Y5Y4)
T1 construct: expressed in transfected cells; host or cells: HEK (human embryonic kidney) cells, membrane preparation
T1 sequence (Q9Y5Y4 1-395): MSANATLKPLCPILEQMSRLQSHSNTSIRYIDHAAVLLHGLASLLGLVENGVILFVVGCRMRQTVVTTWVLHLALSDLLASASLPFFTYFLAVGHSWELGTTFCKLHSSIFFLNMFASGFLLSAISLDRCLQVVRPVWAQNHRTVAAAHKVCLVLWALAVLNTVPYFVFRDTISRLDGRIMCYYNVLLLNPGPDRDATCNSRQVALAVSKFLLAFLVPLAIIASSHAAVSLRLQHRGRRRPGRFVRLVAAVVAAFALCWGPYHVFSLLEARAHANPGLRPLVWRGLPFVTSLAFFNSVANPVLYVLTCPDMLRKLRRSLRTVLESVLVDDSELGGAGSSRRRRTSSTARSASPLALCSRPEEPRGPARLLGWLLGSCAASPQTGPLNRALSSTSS
Assay: CRTH2 radioligand binding assay ([3H]-PGD2 displacement, SPA)
Settings: HEK cell membranes expressing the CRTH2 receptor, 1 nM [3H]-PGD2; Ki from IC50 by Cheng-Prusoff equation
Description: Compounds of the invention were tested using the following biological test method to determine their ability to displace PGD2 from the CRTH2 receptor.
CRTH2 Radioligand Binding Assay
The receptor binding assay is performed in a final volume of 200 μL binding buffer [10 mM BES (pH 7.4), 1 mM EDTA, 10 mM manganese chloride, 0.01% BSA] and 1 nM [^3H]-PGD2 (Amersham Biosciences UK Ltd). Ligands are added in assay buffer containing a constant amount of DMSO (1% by volume). Total binding is determined using 1% by volume of DMSO in assay buffer and non-specific binding is determined using 10 μM of unlabeled PGD2 (Sigma). Human embryonic kidney (HEK) cell membranes (3.5 μg) expressing the CRTH2 receptor are incubated with 1.5 mg wheatgerm agglutinin SPA beads and 1 nM [^3H]-PGD2 (Amersham Biosciences UK Ltd) and the mixture incubated for 3 hours at room temperature. Bound [^3H]-PGD2 is detected using a Microbeta TRILUX liquid scintillation counter (Perkin Elmer). Compound IC50 value is determined using a 6-point dose response curve in duplicate with a semi-log compound dilution series. IC50 calculations are performed using Excel and XLf it (Microsoft), and this value is used to determine a Ki value for the test compound using the Cheng-Prusoff equation.

Ki: 66 nM
SMILES: Cc1c(CC(=O)O)c2cc(F)ccc2n1Cc1ccccc1S(=O)(=O)c1ccc(F)cc1 [Example 1, {5-fluoro-1-[2-(4-fluorobenzenesulfonyl)benzyl]-2-methyl-1H-indol-3-yl}acetic acid]
